The values that follow come from US20100184812A1, “MUTUAL PRODRUGS AND METHODS TO TREAT CANCER” (UNIVERSITY OF MARYLAND, BALTIMORE, priority 2007, published 2010).

Read-outs that look alike come from different tables or passages of the source.

The test system of one data set is MCF-7HOX-B7. The data set is described as follows: MTT cell growth inhibition, MCF-7HOX-B7 cells. The class given is cell-based. Particulars: MCF-7HOX-B7. The protocol:
(§1) Other cell lines used in this study include, MDA-MB-231 (estrogen receptor negative, ER−ve), MCF-7 (ER+ve) were also purchased from ATCC and were cultured as previously described.^44, 45 LTLC and LTLT-Ca were kindly provided by Dr. Angela Brodie, University of Maryland, Baltimore, and details of their phenotypes and culturing conditions are as previously reported.^46, 47 MCF-7TAM and MCF-7HoxB-7 were provided by Dr. Sara Sukumar of Johns Hopkins University, Baltimore, and details of their phenotypes and culturing conditions are as previously reported.^48 Except for MCF-7 breast cancer cell all other breast cancer cells used in this study are insensitive to endocrine therapeutic agents and to most anti-cancer agents.
(§2) PC-3 cells were seeded in 24 well plates (Corning Costar) at a density of 2×10^4 cells per well per 1 mL of medium. Cells were allowed to adhere to the plate for 24 hours and then treated with different concentrations of ATRA, HDIs or mutual prodrugs dissolved in 10% DMSO, 90% ethanol. Cells were treated for five days with renewal of prodrug and media on day 3. On the fifth day, medium was renewed and 100 μL of MTT (3-(4,5-dimethylthiazol-2-yl)-2,5-diphenyl-2H-tetrazolium bromide from Sigma) solution (0.5 mg MTT/mL of media) was added to the medium such that the ratio of MTT:medium was 1:10. The cells were incubated with MTT for 2 hours. The medium was then aspirated and 500 μL of DMSO was added to solubilize the violet MTT-formazan product. The absorbance at 560 nm was measured by spectrophotometry (Victor 1420 multilabel counted, Wallac). For each concentration of agent or mutual prodrugs there were triplicate wells in each independent experiment. GI50 values were calculated by nonlinear regression analysis using GraphPad Prism software.
(§3) Given the potency of most of the mutual prodrugs of the present invention, in MDA-MB-231 and PC-3 cell lines, their effects on the growth of some known drug-resistant breast cancer cell lines, including MCF-7TAMR, MCF-7Hox-B7, LTLC and LTLT-Ca was tested compared to parental MCF-7 cells.

A further data set concerns MCF-7TAMR. The data set is described as follows: MTT cell growth inhibition, MCF-7TAMR cells. Format: cell-based. Particulars: MCF-7TAMR. As to the method: as §1, §2, §3
For data set [1] the following is noted: pH 7.2.
Experimental: Plasma was obtained by centrifugation of blood samples (obtained from mice) containing 0.25% heparin. 0.8 ml of plasma was mixed with 0.2 ml of phosphate buffer (pH 7.2). Incubations were performed at 37° C.+/−0.5° C. using shaking water bath. The reaction was initiated by adding 25 μl of stock solution of mutual prodrugs (1 mg/ml) to preheated plasma and aliquots were taken at different time interval and extracted using solid phase extraction with C18 Bond Elut columns. HPLC analysis of the extracted samples were performed using a multi-linear gradient solvent system, (i) 20 mM aq. CH3COONH4 buffer/CH3OH(50:50), (100% to 0%) and (ii) CH3OH(100%), (0% to 100%) at a flow rate of 0.8 ml/min.
Plasma was obtained by centrifugation of blood samples containing 0.25% heparin. 0.8 ml of plasma was mixed with 0.2 ml of phosphate buffer (pH 7.2). Incubations were performed at 37° C.±0.5° C. using shaking water bath. […]
HPLC methods were developed to briefly study the cleavage of compounds VNLG/60, VNLG/66, VNLG/114,VNLG/122 and VNLG/124, in fresh mouse plasma. […] Furthermore, the stability of mutual prodrugs was studied in 0.02 M phosphate buffer (pH=7.2) and also in 80% human serum (obtained from Sigma) containing 20% 0.02 M phosphate buffer as previously described.^41 The mutual prodrugs were each incubated at 37° C. for 24 h, extracted and analyzed by HPLC.
In a further data set the test system is MCF-7. Nature of the data set: MTT cell growth inhibition, MCF-7 cells. The class given is cell-based. The note with it: MCF-7. The protocol: as §1, §2, §3
Another data set deals with LTLC. The data set is described as follows: MTT cell growth inhibition, LTLC cells. The class given is cell-based. As to the method:
as §1
(§4) PC-3 cells were seeded in 24 well plates (Corning Costar) at a density of 2×10^4 cells per well per 1 mL of medium. Cells were allowed to adhere to the plate for 24 hours and then treated with different concentrations of ATRA, HDIs or mutual prodrugs dissolved in 10% DMSO, 90% ethanol. Cells were treated for five days with renewal of prodrug and media on day 3. […] The absorbance at 560 nm was measured by spectrophotometry (Victor 1420 multilabel counted, Wallac). […] GI50 values were calculated by nonlinear regression analysis using GraphPad Prism software. […]

Data set [2] has as its system PC-3 prostate cancer cells. The data set is described as follows: MTT cell growth inhibition assay, PC-3 cells. The class given is cell-based, human. The note with it: PC-3. As to the method:
PC-3 (androgen receptor negative, AR−ve) cells were obtained from American Type Culture Collection (ATCC, Rockville, Md., USA). Cells were maintained in RPMI 1640 medium (Gibco, Invitrogen, Carlsbad, Calif., USA) supplemented with 10% fetal bovine serum (Atlanta Biologicals, Lawrenceville, Ga., USA) and 1% penicillin/streptomycin. Cells were grown as a monolayer in T75 tissue culture flasks in a humidified incubator (5% CO2, 95% air) at 37° C.
as §2
(§5) The MTT (3-[4,5-dimethylthiazol-2-yl]-2,5-diphenyltetrazolium bromide) assay was used to measure the cell viability. PC-3 cells or MDA-MB-231 cells (1.0×10^3 cells/ml) were seeded into 96 well plates. Cells were treated with the compounds on day 2 at different concentrations. On the 5th day, the medium was removed and […] of a 0.5 mg/ml MTT solution was added to each well. The plates were incubated at 37° C. for 2 hours and 200 μL of DMSO was added. The yellow tetrazolium salt (MTT) is reduced to a purple formazan product by the mitochondrial dehydrogenase from living cells. The product is then detected by spectrophotometry at 560 nm.
To assess the effect of mutual prodrugs on cell growth, PC-3 and MDA-MB-231 cells were treated with mutual prodrugs for […], respectively. […] In this cell line, the order of potency was VNLG/66>VNLG/114>VNLG/122>VNLG/124>VNLG/60. The efficacies of mutual prodrugs were compared to the efficacies of ATRA or HDIs alone in PC-3 prostate cancer cells. […] The reason(s) for these differential potencies of the different mutual prodrugs in PC-3 cells are unknown at this time, but may be idiosyncratic, possibly due to extents and efficiencies of cell membrane penetration and/or intracellular cleavage of mutual prodrugs.

Data set [3] has as its system MDA-MB-231 breast cancer cells. Nature of the data set: MTT colorimetric cell viability assay, MDA-MB-231 cells. The class given is cell-based. Particulars: MDA-MB-231. As to the method:
as §1
as §5, with “viability.” for “viability. PC-3 cells or”, “compound” for “compounds”
as §5

Another data set relates to LTLT-Ca. The data set is described as follows: MTT cell growth inhibition, LTLT-Ca cells. The class given is cell-based. The protocol: as §1, §4

Regarding “{N-[N-{2-[4-{[3-Pyridylmethoxy)carbonyamino]methyl}phenyl)carbonylamino]phenyl}carbamoyl carbamoyloxy}methyl(2E,4E,6E,8E)-3,7-dimethyl-9-(2,6,6-trimethylcyclohex-1-enyl)nona-2,4,6,8-tetraenoate [VNLG/66]”, the GI50 in the data set on MCF-7HOX-B7 stood at 6 nM; in the data set with MCF-7TAMR it was 20 nM; in the data set with MCF-7, 150 nM; in the data set on LTLC it was 20 nM; in data set [2] (dose-response curves, at least three independent experiments, SEM < 10%, read-out: GI50 Values, PC-3 prostate cancer cells), 40 nM; in data set [2] (read-out: GI50, PC-3 cells), 40 nM. Further, the GI50 was 940 nM in data set [3] (dose-response curves, at least three independent experiments, SEM < 10%, read-out: GI50 Values, MDA-MB-231 breast cancer cells); 940 nM in data set [3] (read-out: GI50, MDA-MB-231 cells); 650 nM in the data set with LTLT-Ca. In data set [1], the “hydrolysis of mutual prodrug in plasma” value is given as “no mutual Prodrug after one hour”. Further, the “GI50 fold lower than 2 (MS-275)” value in data set [2] is listed as 4.75 fold.
